Experimental data as given in patent US6177592A, “Compounds” (priority 1997, dated 2001).

Assays:
tumor necrosis factor = assay: TNF production from LPS-induced celiac macrophage; assay type: cell-based, mouse (CDF1)
Procedure: (2) Paraffin oil (Cosmo Bio) (2 ml) was intraperitoneally administered to female CDF1 mice of eight weeks age to induce celiac macrophage (M.phi.). After one week from administration of paraffin oil, 4 ml of an RPMI-1640 medium (Gibco) was intraperitoneally infused, well massaged and recovered to give celiac cells.
The celiac cells were washed with an RPMI-1640 medium twice and suspended in an PPMI1640 medium containing 10% of fetal calf serum (FCS; High-Clone) to adjust the cell concentration to 1×10^6 cells/ml. The cell solution (1 ml) prepared as such was planted on a 24-well plate and incubated in a CO2 incubator at 37° C. for two hours. Non-adhesion cells contained in the supernatant liquid after incubation was removed and the adhesion cells were used as celiac M . […]
After the incubation, 100 μl of 100 ng/ml LPS (manufactured by Sigma) was added and incubation was conducted for 24 hours more. After completion of the incubation, the supernatant liquid was recovered therefrom and the amount of TNF-a produced therein was determined using a commercially available ELISA kit (manufactured by Endogen).

[1] = test system: DSEK cell (fibroblast strain from synovial membrane); assay: Growth of DSEK synovial fibroblasts (WST-1) and apoptosis; assay type: cell-based, human (patient suffering from chronic articular rheumatism)
Procedure: DSEK cell (cell strain stored at the Department of Second Internal Medicine, Integrated Medical Center, Saitama College of Medicine) which was a fibroblast strain established from synovial membrane of a patient suffering from chronic articular rheumatism was incubated in an Iscob-modified Dulbecco medium (IMDM, manufactured by Gibco, 12440-053) containing 10% fetal bovine serum (FBS, manufactured by Gibco, 26140-079) at 37° C. in the presence of 5% carbon dioxide gas until confluent and then the cells were collected by peeling off with trypsin-EDTA (manufactured by Gicbo, 25300-054). The cells were suspended in the above-mentioned medium until 25,000 cells/ml were resulted and each 100 μl was placed in each well of a 96-well microtiter plate. After five days from incubation when the state of confluence was almost achieved, the medium was discarded and then the above-mentioned medium containing 2.5, 5, 10, 20 or 30 μM of GM was added. After incubating for 24, 48 or 72 hours, 10 μl of a premix WST-1 (manufactured by Takara Shuzo, MK400) was added thereto followed by subjecting to a reaction at 37° C. for four hours. The value obtained by deducting the absorbance at 650 nm (A650) from that at 450 nm (A450) was defined as a degree of growth of cell.

Molt-3 cells = assay: Growth of Molt-3 cells (MTT); assay type: cell-based, human; details: 24 hours
Procedure: (1) Jurkat cells (ATCC TIB-152) and Molt-3 cells (ATCC CRL-1552) which were human T cell leukemia cell stain were incubated in an RPMI 1640 medium (manufactured by Gibco BRL) containing 10% fetal calf serum (FCS, manufactured by Bio Whittaker) at 37° C. in the presence of 5% CO2 and the cells were then suspended in the above-mentioned medium containing 0, 5, 10 or 20 μM of GM to make the cell numbers 5×10^5 cells/ml followed by incubating for 24 hours. Cell growth was measured by an MTT method [Mosmann, et al.: J. Immunol. Methods, volume 65, pages 55-63 (1983)] wherein degree of cell growth was determined by the absorbance at 560 nm.

Fas antigen [2] = assay: Fas antigen expression in Jurkat cells; assay type: cell-based, human; details: 1-10 μM, 24 hours
Procedure: (§1) (2) Influence of GM on Fas antigen expression (productive induction) in Jurkat cells and Molt-3 cells was measured as follows. In a 10% FCS-containing RPMI 1640 medium containing 0, 1, 5, 10 or 20 μM of cyclopentenone or GM, 5×10^5 cell/ml of Jurkat cells or Molt-3 cells were incubated at 37° C. for 24 hours in the presence of 5% of CO2 and then subjected to a two-step immunostaining using an anti-Fas antibody (manufactured by Boehringer-Ingelheim) in accordance with a method of Munker [Munker, R.: Ann. Hematol., volume 70, pages 15-17 (1995)].
(§2) Fluorescence intensity of the stained 1×10^4 cells was measured by a flow cytometer (Orthocytron; manufactured by Ortho Diagnostic Systems) and ratio of the cell showing a predetermined or higher fluorescence intensity which were Fas antigen-expressing cells was calculated.

Fas antigen [3] = assay: Fas antigen expression in Molt-3 cells; assay type: cell-based, human
Procedure: as §1, §2
(3) Molt-3 cells were incubated for 1, 3, 6, 12 or 24 hours after addition of 10 (i M of GM by the same manner as in Example 12-(2) and then the ratio of the cells which expressed Fas antigen was measured by the same method as in Example 12-(2)sa

[4] = test system: sensitivity reaction of a delayed type; assay: Delayed type hypersensitivity (ovine erythrocyte, pedal edema); assay type: in vivo, mouse (C57BL/6); details: 30 and 300 mg/kg i.p., three days
Procedure: C57BL/6 mice (female, five weeks age, body weight about 20 g) were purchased from Nippon SLC and used for the experiment after a preliminary breeding for one week at our end. Ovine erythrocyte (manufactured by Shimizu Jikken Zairyo) which is an antigen provoking the sensitivity reaction of a delayed type was washed three times with a physiological saline solution (manufactured by Otsuka Pharmaceutical) to make […] and 203 μl of it was intraperitoneally injected to mice to subject to an antigen sensitization.
After five days from the sensitization, 40 μl of antigen which was prepared by the same manner was injected to right paw to induce an antigen whereby pedal edema was provoked. From the antigen-sensitized date, GM was intraperitoneally administered to mice (one group consisting of five mice) once daily at the dose of 30 mg/kg or 300 mg/kg for three days.
After two days from the antigen induction, volume of right paw of the mice was measured by a measuring device for pedal edema (manufactured by Ugo Basile) and used as an index for the sensitivity reaction of a delayed type. The measured value was given by calculating the increasing rate from the right paw volume of the mice measured before the antigen induction.

`N[C@@H](CCC(=O)N[C@@H](CSC1C=C(O)C(=O)C1)C(=O)NCC(=O)O)C(=O)O` (stereo partly shown) [GM, 2-hydroxy-4-glutathion-S-yl-2-cyclopenten-1-one] was tested, and the “inhibition activity of TNF production (in words)” value (tumor necrosis factor; Example 8) was “inhibition activity of the production of tumor necrosis factor”, the minimal effective concentration (tumor necrosis factor; Mus musculus, Macrophage, read-out: concentration which significantly inhibited TNF production, LPS-induced, 24 hours) was no less than 10 µM and the “degree of growth of cell (A450 - A650)” value ([1]; 2.5 μM, 24 hours, 0 μM 0.846) was 0.768. For the same compound, the “degree of growth of cell (A450 - A650)” value ([1]; 2.5 μM, 48 hours, 0 μM 1.270) was 1.133, the “degree of growth of cell (A450 - A650)” value ([1]; 5 μM, 24 hours, 0 μM 0.846) was 0.621 and the “degree of growth of cell (A450 - A650)” value ([1]; 5 μM, 48 hours, 0 μM 1.270) was 0.942. For the same compound, the “production of apoptic bodies” value ([1]; 10 μM) was “production of apoptic bodies was noted”, the “degree of growth of cell (A450 - A650)” value ([1]; 10 μM, 24 hours, 0 μM 0.846) was 0.420 and the “degree of growth of cell (A450 - A650)” value ([1]; 10 μM, 48 hours, 0 μM 1.270) was 0.486. For the same compound, the “degree of growth of cell (A450 - A650)” value ([1]; 20 μM, 24 hours, 0 μM 0.846) was 0.238, the “degree of growth of cell (A450 - A650)” value ([1]; 20 μM, 48 hours, 0 μM 1.270) was 0.185 and the “degree of growth of cell (A450 - A650)” value ([1]; 30 μM, 24 hours, 0 μM 0.846) was 0.241. For the same compound, the “degree of growth of cell (A450 - A650)” value ([1]; 30 μM, 48 hours, 0 μM 1.270) was 0.196, the “apoptosis-inducing and growth-inhibiting action to synovial cells (in words)” value ([1]; Example 11) was “apoptosis-inducing action and growth-inhibiting action to synovial cells” and the minimal effective concentration ([1]; Homo sapiens, Fibroblast, 24 and 48 hours, vs control, read-out: concentration at which cell growth was inhibited) was no less than 5 µM. For the same compound, the “effect in the growth of cells” value (Molt-3 cells; 5 μM or less) was “no significant effect in the growth of cells”, the inhibition at 10 µM (Molt-3 cells; Homo sapiens, 10 μM, read-out: inhibition of cell growth) was roughly 50% and the inhibition at 20 µM (Molt-3 cells; Homo sapiens, 20 μM, read-out: inhibition of cell growth) was no less than 75%. For the same compound, the “ratio of Fas antigen-expressing cells” value (Fas antigen [2]) was “the ratio of Fas antigen-expressing cells increased on a concentration-dependent manner”, the “ratio of Fas antigen-expressing cells, time course” value (Fas antigen [3]; 10 μM, 1-24 hours) was “increased after 12 hours from the incubation and further increase was noted after 24 hours” and the “ratio of Fas antigen-expressing cells” value (Fas antigen [3]; 1-10 μM, 24 hours) was “the ratio of Fas antigen-expressing cells increased on a concentration-dependent manner”. The “inhibiting action to a sensitivity reaction of a delayed type” value [4] was “significant inhibiting action to a sensitivity reaction of a delayed type”.
